Data published in patent US20240196885A1, “INSECT PEST BAIT COMPOSITION WITH ISO[…] METHOD FOR CONTROLLING INSECT PESTS” (SYNGENTA CROP PROTECTION AG, priority 2021, published 2024).

Columns and labels:
Format in all cases: in vivo
[1] = system: Agrotis ypsilon (Greasy cutworm); experiment: Protection of corn seedlings from Agrotis ypsilon larvae in field arenas (bait, foliar spray, seed treatment)
Darkling beetle larvae [2] = experiment: Darkling beetle larval knockdown and mortality after exposure to oat flake bait
Protocol: (§1) Bait preparation. isocyloseram was applied dissolved in acetone to the appropriate insect diet such that the desired a.i. loading was delivered in the diet after the acetone had evaporated. • House fly—granulated sugar • Termites—filter paper • Darkling beetle—oat flakes
(§2) In a suitable arena, 10 insects of each species were exposed to 1 g of the solid baits. Baits were presented in such a way as to minimise the contact exposure. Three replicates of each treatment and species were conducted.
(§3) Insect knockdown was assessed one and three hours after exposure, and mortality after 24 and 48 and 168 hours.

[3] = system: Reticulitermes santonensis; experiment: Termite worker knockdown and mortality after exposure to filter paper bait
Protocol: as §1, §2, §3

[4] = system: Atta bisphaerica (leaf cutter ant); experiment: Field test for control of leaf cutter ant with pelleted citrus pulp bait; settings: for control efficiency after opening the nests in the excavation of the anthills: excavation at 155 DAA, modified Abbott formula; for ceased activity in leaf cutting by ants: ninety days after application
Protocol: Bait preparation. Blends of citrus pulp and refined soybean oil (95/5 w/w %) were sprayed with an aqueous isocycloseram suspension concentrate (SC) such as […]™ (Syngenta Agro S.A.), further blended and pelletized. Bait pellets or granules having an isocycloseram a.i. loading of 0.05, 0.1, 0.2 and 0.3%, respectively, were prepared.
The field test for the control of Atta bisphaerica (leaf cutter ant) was conducted with the pelleted isocycloseram citrus pulp bait. The experimental design was completely randomized, with fourteen treatments and 10 replications, following the norms, considering an anthill as repetition. The treatments used were: isocyloseram −0.05% at doses of 6, 10 and 12 g/m^2, isocyloseram […] 0.1% at doses of 6, 10 and 12 g/m^2, isocyloseram −0.2% at doses of 6, 10 and 12 g/m^2, isocyloseram −0.3% at doses of 6, 10 and 12 g/m^2, A commercial standard Mirex-S (sulfluramid) at a dose of 10 g/m^2 and a control (Placebo); commercial product dosages per m^2 of loose earth. The evaluations with 1, 2, 3 and 7 DAA (days after application) included the loading rate parameters (%) (i.e. the % bait applied that is carried into the ant nest), return rate (%) (i.e. the % bait rejected by the colony) and intoxicated ants. As 1, 2, 3, 7, 15, 28, 60, 90, 118 and 155 DAA, the ground removal parameters (%) and leaf cutting and anthill excavation at 155 DAA.
The application of the products was carried out manually, with the aid of a dosing cup, near the scouts and trails of the anthills. The results obtained were submitted to variance analysis, compared by the Scott-Knott test (p≤0.05) and corrected by the modified Abbott formula for control calculation.

Darkling beetle adults = experiment: Darkling beetle adult knockdown and mortality after exposure to oat flake bait; settings: for Mean % knockdown or mortality: adults
Protocol: as §1, §2, §3

[5] = system: Agrotis ypsilon (Greasy cutworm); experiment: Protection of corn seedlings from Agrotis ypsilon larvae in field arenas (bait, foliar spray, seed treatment); remark: listed apart in the source
Protocol: Trial layout: Arenas of 4 square metres were created in a field with 20 cm high plastic walls to prevent escape of larvae and influx of predators but left to the open air. 3 replicates per trearment were set up. Corn (variety Hightech 2031, conventional non-Bt) was planted at the rate of 30 seeds per arena.
Application method 1: For seed treatment, the seeds were treated with aqueous 40% isocycloseram formulation, such as […]™ (Syngenta Agro S.A.), one day before planting using a standard seed treatment water slurry volume of 50 ml/kg of seed. Four rates of isocycloseram seed treatment were tested 0.3, 0.6, 1.3 and 2.5 mg/seed.
Application method 2: For bait application, dried cobs of maize corn were ground after removal of the seeds to form a coarse granular “corn grit” bait carrier. The corn grit was spread out on a plastic sheet and sprayed with a 40% SC aqueous formulation of isocycloseram mixed with water at the rates of 15, 30 and 60 grams of isocycloseram per 70 kg of corn grit. The baits were then mixed homogeneously and spread by hand in the evening at a rate of 70 kg/ha (7 gr./sqm, or 28 gr./plot) evenly over the soil surface. This was done 4 days after planting, just before emergence of the corn to attract and kill the cutworms at night.
Application method 3: For foliar sprays, a standard hand-held spray-boom with flat-fan nozzles at 600 I/ha was used. The spray was made 1 day after release of the Greasy cutworm larvae at the 2 leaf stage (BBCH 12) of the corn. Three rates were used 30, 60 and 90 grams isocyclseram per hectare
Two check lots were included—both untreated, one with infestation and one without infestation.
Artificial infestation: Laboratory-reared Agrotis ypsilon (Greasy cutworm) larvae at the L5 stage were released into the arenas at a rate of 30 larvae per arena (1 larva per plant) in the morning. This infestation was made Infest 30 L5 larvae into each arena in the morning (1 larva per plant) approx 3 days after seeding just as corn is germinating. Make the application 8-24 hours later.
Assessment: The number of damaged plants per plot was measured at 21 days after the last application (the foliar spray).

Musca domestica = experiment: Adult house fly knockdown and mortality after exposure to a sugar bait
Protocol: as §1, §2, §3

Darkling beetle larvae [6] = experiment: Darkling beetle larval knockdown and mortality after exposure to oat flake bait; settings: larval stage, 100 ppm, after seven days
[7] = system: German cockroaches, Blattella germanica; experiment: Cockroach peanut butter bait: donor mortality and secondary kill of recipients; settings: for Recipient % mortality: recipients exposed to donors of 1% bait, not to the bait
Protocol: Isocycloseram was incorporated into the peanut-butter base by mixing 0.5 ml of a 10000 ppm (1%) solution of the compound in acetone into 0.5 g of peanut butter. The mixture was left in a fume cupboard for 24 hours to allow the acetone to evaporate, leaving […] of compound in 0.5 g of peanut butter, equivalent to 10000 ppm.
Five adult male and five non-gravid adult female German cockroaches, Blattella germanica, were marked with a dot of white paint, to identify them, and placed into a plastic arena approximately 20 cm in diameter. Also placed in each arena was a simple harbourage constructed from concertinaed card and a water source. After the cockroaches had acclimatised for 24 hours a 15 ml glass vial containing 0.5 g of the treated peanut butter bait was added.
After 48 hours the glass vial containing the bait was removed, and an assessment of the cockroach mortality was made. Five adult male and five non-gravid adult female German cockroaches, Blattella germanica, were added to the arena, leaving any dead or alive cockroaches with the white paint mark in the arena.
Mortality of both the marked and unmarked cockroaches was made after 24 and 96 hours.

[8] = 0.1% in oat flake bait, 3 hours
[9] = 0.1% in oat flake bait, 24 hours
[10] = 0.1% in oat flake bait, 48 hours
[11] = 0.1% in oat flake bait, 168 hours
[12] = 1% in oat flake bait, 168 hours

CC1(C)[C@H](C(=O)O[C@H](C#N)c2cccc(Oc3ccccc3)c2)[C@@H]1/C=C(\Cl)C(F)(F)F [lambdacyhalothrin, Lambdacyhalothrin]
% reduction of corn damage 22 d after infestation ([1]; Foliar spray 22.4 gai/ha): 81%

Spinetoram
% reduction of corn damage 22 d after infestation ([1]; Foliar spray 18 gai/ha): 28%

CCN1OCC(NC(=O)c2ccc(C3=NOC(c4cc(Cl)c(F)c(Cl)c4)(C(F)(F)F)C3)cc2C)C1=O (centres unmarked) [isocyloseram, Isocycloseram]
Mean % knockdown or mortality (Darkling beetle larvae [2]; 0.1% in oat flake bait, 1 hour): 0% | Mean % knockdown or mortality (Darkling beetle larvae [2]; [8]): 0% | Mean % knockdown or mortality (Darkling beetle larvae [2]; [9]): 0% | Mean % knockdown or mortality (Darkling beetle larvae [2]; [10]): 3% | Mean % knockdown or mortality (Darkling beetle larvae [2]; [11]): 23% | Mean % knockdown or mortality (Darkling beetle larvae [2]; 1% in oat flake bait, 1 hour): 0% | Mean % knockdown or mortality (Darkling beetle larvae [2]; 1% in oat flake bait, 3 hours): 23% | Mean % knockdown or mortality (Darkling beetle larvae [2]; 1% in oat flake bait, 24 hours): 80% | Mean % knockdown or mortality (Darkling beetle larvae [2]; 1% in oat flake bait, 48 hours): 83% | Mean % knockdown or mortality (Darkling beetle larvae [2]; [12]): 100% | Mean % knockdown or mortality ([3]; 0.10% in filter paper bait, 1 hour): 0% | Mean % knockdown or mortality ([3]; 0.10% in filter paper bait, 3 hours): 0% | Mean % knockdown or mortality ([3]; 0.10% in filter paper bait, 24 hours): 100% | Mean % knockdown or mortality ([3]; 0.10% in filter paper bait, 48 hours): 100% | Mean % knockdown or mortality ([3]; 1% in filter paper bait, 1 hour): 0% | Mean % knockdown or mortality ([3]; 1% in filter paper bait, 3 hours): 7% | Mean % knockdown or mortality ([3]; 1% in filter paper bait, 24 hours): 100% | Mean % knockdown or mortality ([3]; 1% in filter paper bait, 48 hours): 100% | control efficiency after opening the nests in the excavation of the anthills ([4]; 0.2% bait (10 and 12 g)): higher than 84% | control efficiency after opening the nests in the excavation of the anthills ([4]; 0.3% bait (6, 10 and 12 g)): higher than 84% | response rate as a function of the time of intoxication ([4]; first three days after application of bait): 87.5% | ceased activity in leaf cutting by ants ([4]; 0.1% bait (12 g)): 100% | ceased activity in leaf cutting by ants ([4]; 0.2% bait (6, 10 and 12 g)): 100% | ceased activity in leaf cutting by ants ([4]; 0.3% bait (6, 10 and 12 g)): 100% | response rate as a function of the time of intoxication ([4]; seven days after bait application): 100% | average (ground) removal ([4]; twenty-eight days after treatment): less than 5% | mortality (Darkling beetle adults; adult stage, 100 ppm, after seven days): 100% | Mean % knockdown or mortality (Darkling beetle adults; 0.1% in oat flake bait, 1 hour): 0% | Mean % knockdown or mortality (Darkling beetle adults; [8]): 0% | Mean % knockdown or mortality (Darkling beetle adults; [9]): 0% | Mean % knockdown or mortality (Darkling beetle adults; [10]): 3% | Mean % knockdown or mortality (Darkling beetle adults; [11]): 7% | Mean % knockdown or mortality (Darkling beetle adults; 1% in oat flake bait, 1 hour): 0% | Mean % knockdown or mortality (Darkling beetle adults; 1% in oat flake bait, 3 hours): 0% | Mean % knockdown or mortality (Darkling beetle adults; 1% in oat flake bait, 24 hours): 93% | Mean % knockdown or mortality (Darkling beetle adults; 1% in oat flake bait, 48 hours): 97% | Mean % knockdown or mortality (Darkling beetle adults; [12]): 100% | % reduction of corn damage 22 d after infestation ([5]; Corn Grit Bait 0.42 gai/kg bait, equivalent 30 gai/ha): 94% | % reduction of corn damage 22 d after infestation ([5]; Corn Grit Bait 0.63 gai/kg bait, equivalent 60 gai/ha): 94% | % reduction of corn damage 22 d after infestation ([5]; Corn grit Bait 0.21 gai/kg bait, equivalent 15 gai/ha): 87% | % reduction of corn damage 22 d after infestation ([5]; Foliar spray 30 gai/ha): 37% | % reduction of corn damage 22 d after infestation ([5]; Foliar spray 60 gai/ha): 46% | % reduction of corn damage 22 d after infestation ([5]; Foliar spray 90 gai/ha): 74% | % reduction of corn damage 22 d after infestation ([5]; Seed treatment 0.3 mg ai/seed, equivalent 18 gai/ha): 0% | % reduction of corn damage 22 d after infestation ([5]; Seed treatment 0.6 mg ai/seed, equivalent 36 gai/ha): 2% | % reduction of corn damage 22 d after infestation ([5]; Seed treatment 1.3 mg ai/seed, equivalent 72 gai/ha): 6% | % reduction of corn damage 22 d after infestation ([5]; Seed treatment 2.5 mg ai/seed, equivalent 144 gai/ha): 13% | Mean % knockdown or mortality (Musca domestica; 0.10% in sugar bait, 1 hour): 0% | Mean % knockdown or mortality (Musca domestica; 0.10% in sugar bait, 3 hours): 57% | Mean % knockdown or mortality (Musca domestica; 0.10% in sugar bait, 24 hours): 100% | Mean % knockdown or mortality (Musca domestica; 1% in sugar bait, 1 hour): 0% | Mean % knockdown or mortality (Musca domestica; 1% in sugar bait, 3 hours): 97% | Mean % knockdown or mortality (Musca domestica; 1% in sugar bait, 24 hours): 100% | mortality (Darkling beetle larvae [6]): 100% | Donor % mortality ([7]; 1% in peanut butter bait, 48 hours): 100% | Recipient % mortality ([7]; 24 hours post introduction): 97% | Recipient % mortality ([7]; 96 hours post introduction): 100%
